The test deals with interaction between Human tRNA^Lys3 and HIV-1 genomic RNA. The test can be described thus: Biochemical HIV-1 tRNA Inhibition Assay (AlphaScreen). Format: binding. Also on record: key: +: showing some activity; ++: intermediate activity; +++: the highest activity. To be noted: active compounds from high throughput screening, prioritized on IC50. From the text:
The methods for detecting binding of the target RNA to the tRNA or the inhibition of such binding may be performed using any method for such detection. For example, the AlphaScreen® assay (Packard Instrument Company, Meriden, Conn.). AlphaScreen® technology is an “Amplified Luminescent Proximity Homogeneous Assay” method utilizing latex microbeads (250 nm diameter) containing a photosensitizer (donor beads), or chemiluminescent groups and fluorescent acceptor molecules (acceptor beads). Upon illumination with laser light at 680 nm, the photosensitizer in the donor bead converts ambient oxygen to singlet-state oxygen. The excited singlet-state oxygen molecules diffuse approximately 250 nm (one bead diameter) before rapidly decaying. If the acceptor bead is in close proximity to the donor bead (i.e., by virtue of the interaction of the target RNA and tRNA fragment), the singlet-state oxygen molecules reacts with chemiluminescent groups in the acceptor beads, which immediately transfer energy to fluorescent acceptors in the same bead. These fluorescent acceptors shift the emission wavelength to 520-620 nm, resulting in a detectable signal. Antagonists of the interaction of the target RNA with the tRNA fragment will thus inhibit the shift in emission wavelength, whereas agonists of this interaction would enhance it.
In the AlphaScreen configuration (FIG. 3) the assay is done in solution using the same RNA as the immobilization assay. The donor and acceptor beads are bound to their respective RNA's. During the screening the RNAs and test drugs/small molecules are incubated together and formation of the complex is measured using the AlphaScreen detection conditions. Utilization of the AlphaScreen assay may allow for the assay to be run at a lower RNA concentration at room temperature, and increase the stability of the complex.
HIV-1 has evolved to use Human tRNA^Lys3 as a primer for initiation of reverse transcription. Therefore, the interaction between tRNA^Lys3 and viral genomic RNA represents a potential novel target for HIV-1 drug development. Based on this hypothesis, a biochemical assay to identify inhibitors of the interaction between Human tRNA^Lys3 and HIV-1 genomic RNA was developed by TRANA Discovery and transferred to Southern Research Institute for high-throughput screening. This assay was developed as a homogeneous amplified luminescent proximity assay using AlphaScreen™ reagents from PerkinElmer. Based on this assay technology, the AlphaScreen™ luminescent signal serves as a mechanism for detecting the interaction between RNA molecules that represent Human tRNA^Lys3 and HIV-1 genomic RNA. The inhibition of the interaction between these RNA molecules by test compounds is detected as a decrease in the AlphaScreen™ luminescent signal.
A preliminary 15,000 compound screen (NINDS Diversity Set) was previously completed and the results were reported through NIAID contract N01-AI-70042. For the results described herein, a 101,000 compound library that was purchased from ChemBridge for the NIAID TAACF program was used. This library was carefully selected for diversity and minimal similarity to the 100,000 compound NINDS library, which is also planned to be screened using the TRANA Discovery Biochemical HIV-1 tRNA Inhibition Assay. The compounds were screened at a concentration of 12.5 μg/mL (first 3 batches) or 25 μg/mL (fourth and final batch).
(Bead proximity is the source of the signal in Alpha formats.)
For the compound `O=C1NC(=S)N(c2ccc(Cl)cc2)C(=O)C1=Cc1ccco1` [1-(4-chlorophenyl)-5-(2-furylmethylene)-2-thioxodihydro-4,6(1H,5H)-pyrimidinedione], the Activity entry is recorded as “+”.
Consider `Cn1cccc1C=C1C(=O)NC(=S)N(c2ccc(Cl)cc2)C1=O` [1-(4-chlorophenyl)-5-[(1-methyl-1H-pyrrol-2-yl)methylene]-2-thioxodihydro-4,6(1H,5H)-pyrimidinedione], for which the Activity entry was “+”.
Consider `CC(=NNc1ccccc1[N+](=O)[O-])c1ccco1` [1-(2-furyl)ethanone (2-nitrophenyl)hydrazone], for which the Activity entry was “+”.
With `Cc1ccccc1NC1=C(N2CCOCC2)C(=O)c2ccccc2C1=O` [2-[(2-methylphenyl)amino]-3-(4-morpholinyl)naphthoquinone] the entry was “++”; with `O=C1C(Nc2ccc(F)c(F)c2)=C(N2CCOCC2)C(=O)c2ccccc21` [2-[(3,4-difluorophenyl)amino]-3-(4-morpholinyl)naphthoquinone], “+”; with `NN1C(=O)C(=Cc2ccc(O)c(O)c2)SC1=S` [3-amino-5-(3,4-dihydroxybenzylidene)-2-thioxo-1,3-thiazolidin-4-one], “+”.
Turning to `COC(=O)c1ccc(NC2=C(N3CCCC3)C(=O)c3ccccc3C2=O)cc1` [methyl 4-{[1,4-dioxo-3-(1-pyrrolidinyl)-1,4-dihydro-2-naphthalenyl]amino}benzoate], the Activity result was “++”.
With `O=C1NC(=S)N(c2cccc(Cl)c2)C(=O)C1=Cc1ccco1` [1-(3-chlorophenyl)-5-(2-furylmethylene)-2-thioxodihydro-4,6(1H,5H)-pyrimidinedione] the entry was “+”; with `COC(=O)c1ccc(NC2=C(N3CCOCC3)C(=O)c3ccccc3C2=O)cc1` [methyl 4-{[3-(4-morpholinyl)-1,4-dioxo-1,4-dihydro-2-naphthalenyl]amino}benzoate], “++”; with `O=C1c2ccccc2C(=O)c2c1cccc2N1CCCC1` [1-(1-pyrrolidinyl)anthra-9,10-quinone], “++”.
With `CCN1C(=O)C(=Cc2ccc(O)c(O)c2)SC1=S` [5-(3,4-dihydroxybenzylidene)-3-ethyl-2-thioxo-1,3-thiazolidin-4-one] the entry was “+”.
With `O=C1C(Nc2cccc(O)c2)=C(N2CCCCC2)C(=O)c2ccccc21` [2-[(3-hydroxyphenyl)amino]-3-(1-piperidinyl)naphthoquinone] the entry was “+”; with `Cc1cccc(NC2=C(N3CCCC3)C(=O)c3ccccc3C2=O)c1` [2-[(3-methylphenyl)amino]-3-(1-pyrrolidinyl)naphthoquinone], “++”.
`COc1ccc2c(C)nc(NC(=N)N)nc2c1` [N-(7-methoxy-4-methyl-2-quinazolinyl)guanidine]: the Activity entry is listed as “+”.
With `COc1ccc(N2CCN(c3cc(Cl)ccc3[N+](=O)[O-])CC2)cc1` [1-(5-chloro-2-nitrophenyl)-4-(4-methoxyphenyl)piperazine] the entry was “+”; with `CCOc1ccc(Nc2ccc([N+](=O)[O-])c3nonc23)cc1` [N-(4-ethoxyphenyl)-7-nitro-2,1,3-benzoxadiazol-4-amine], “+”.
For `Cc1ccc2nc3c(c(Nc4ccc(N(C)C)cc4)c2c1)CCC3` [N,N-dimethyl-N′-(7-methyl-2,3-dihydro-1H-cyclopenta[b]quinolin-9-yl)-1,4-benzenediamine] the value was “+”; for `Cc1cccc(NC2=C(N3CCOCC3)C(=O)c3ccccc3C2=O)c1` [2-[(3-methylphenyl)amino]-3-(4-morpholinyl)naphthoquinone], “++”; for `Cc1ccc(C=NNc2ccccc2[N+](=O)[O-])o1` [5-methyl-2-furaldehyde (2-nitrophenyl)hydrazone], “+”.
With `CCOc1nc(NC(=N)N)nc2c(C)cccc12` [N-(4-ethoxy-8-methyl-2-quinazolinyl)guanidine] the entry was “++”; with `CCOC(=O)CCCCC(=O)c1[nH]c(=O)[nH]c1C` [ethyl 6-(5-methyl-2-oxo-2,3-dihydro-1H-imidazol-4-yl)-6-oxohexanoate], “++”; with `CCOC(=O)c1ccc(NC2=C(N3CCOCC3)C(=O)c3ccccc3C2=O)cc1` [ethyl 4-{[3-(4-morpholinyl)-1,4-dioxo-1,4-dihydro-2-naphthalenyl]amino}benzoate], “++”.
As to `Nc1c(Cl)cc(N2CCCC2)c2c1C(=O)c1ccccc1C2=O` [1-amino-2-chloro-4-(1-pyrrolidinyl)anthra-9,10-quinone], the Activity entry is on record as “+”.
With `COc1cccc(NC2=C(N3CCCCC3)C(=O)c3ccccc3C2=O)c1` [2-[(3-methoxyphenyl)amino]-3-(1-piperidinyl)naphthoquinone] the entry was “++”.
With `O=C1C(Nc2cccc(Cl)c2)=C(N2CCOCC2)C(=O)c2ccccc21` [2-[(3-chlorophenyl)amino]-3-(4-morpholinyl)naphthoquinone], the Activity entry is recorded as “++”.
For `O=C1C(Cl)=C(NCc2ccccc2)C(=O)c2ccccc21` [2-(benzylamino)-3-chloronaphthoquinone] the value was “+”; for `CN(C)c1cccc2c1C(=O)c1ccccc1C2=O` [1-(dimethylamino)anthra-9,10-quinone], “++”.
For `COC(=O)c1ccc(N2CCCCC2)c2c1C(=O)c1ccccc1C2=O` [methyl 9,10-dioxo-4-(1-piperidinyl)-9,10-dihydro-1-anthracenecarboxylate] the value was “++”; for `O=C1C(=Cc2ccc(O)c(O)c2)SC(=S)N1c1ccccc1` [5-(3,4-dihydroxybenzylidene)-3-phenyl-2-thioxo-1,3-thiazolidin-4-one], “+”; for `CCOC(=O)c1cc(N)ccc1-c1c2ccc(=O)cc-2oc2cc(O)ccc12` [ethyl 5-amino-2-(6-hydroxy-3-oxo-3H-xanthen-9-yl)benzoate], “+++”.
`Cc1ccc(N2CCCCC2)c2c1C(=O)c1ccccc1C2=O` [1-methyl-4-(1-piperidinyl)anthra-9,10-quinone]: the Activity entry is recorded as “++”.
With `CC(=O)N1c2ccc(C)cc2-c2c(ssc2=S)C1(C)C` [5-acetyl-4,4,8-trimethyl-4,5-dihydro-1H[1,2]dithiolo[3,4-c]quinoline-1-thione] the entry was “+”; with `CN(C)C1=C(Cl)C(=O)c2ccccc2C1=O` [2-chloro-3-(dimethylamino)naphthoquinone], “++”.
Turning to `C=CCN1C(=O)C(=Cc2cc(Cl)cc(Cl)c2O)SC1=S` [3-allyl-5-(3,5-dichloro-2-hydroxybenzylidene)-2-thioxo-1,3-thiazolidin-4-one], the Activity result is “+”.
With `O=C1C(Nc2cc(F)cc(F)c2)=C(N2CCOCC2)C(=O)c2ccccc21` [2-[(3,5-difluorophenyl)amino]-3-(4-morpholinyl)naphthoquinone] the entry was “++”; with `Cc1ccc(Nc2cc(C)c(O)c(C)c2)cc1` [2,6-dimethyl-4-[(4-methylphenyl)amino]phenol], “++”; with `CCOc1ccc2c(c1)-c1c(ssc1=S)C(C)(C)N2C(C)=O` [5-acetyl-8-ethoxy-4,4-dimethyl-4,5-dihydro-1H-[1,2]dithiolo[3,4-c]quinoline-1-thione], “+”.
For `O=[N+]([O-])c1ccccc1NN=Cc1ccc(O)c(O)c1` [3,4-dihydroxybenzaldehyde (2-nitrophenyl)hydrazone] the value was “++”.
For `Br.CCN(CC)c1ccc(Nc2nc(-c3ccccn3)cs2)cc1` [N,N-diethyl-N′-[4-(2-pyridinyl)-1,3-thiazol-2-yl]-1,4-benzenediamine hydrobromide] the value was “+”; for `O=[N+]([O-])c1ccc(Nc2ccc(O)cc2)c2nonc12` [4-[(7-nitro-2,1,3-benzoxadiazol-4-yl)amino]phenol], “++”; for `CCCCOc1cccc(C(=O)NC(=S)Nc2ccc(N(C)C)cc2)c1` [3-butoxy-N-({[4-(dimethylamino)phenyl]amino}carbonothioyl)benzamide], “+”.

(Values after US10098887B2, “Antiviral compounds and methods of use thereof” (Trana Discovery, Inc., priority 2010, dated 2018).)
